Values quoted from earlier work as cited in PubChem BioAssay AID1259409 (Chemical Carcinogenesis Research Information System (CCRIS), 2018).

System: rodent chemically induced tumor inhibition, incidence and multiplicity
Assay: CCRIS tumor inhibitor studies

Structure (SMILES): Cc1c(C)c2c(c(C)c1O)CCC(C)(COc1ccc(CC3SC(=O)NC3=O)cc1)O2 (configuration not stated)
- tumour outcome (control, treated, inhibition, significance) (Carcinogen: 4-NITROQUINOLINE 1-OXIDE, 56-57-5, Dose [Inhibitor]: 0, 30 PPM IN DIET FOR 22 WK BEGINNING 1 WK POST FINAL CARCINOGEN DOSE (STUDY DURATION: 31 WK), Route [Inhibitor]: ORAL, Species: RAT, Strain/Sex: F344/MALE, Target Tissue: Type of Lesion: TONGUE: PAPILLOMA, Dose [Carcinogen]: 20 PPM IN DRINKING WATER FOR 8 WK): 3/24 (12.5%), 0/19 (0%), 100%, not significant
- tumour outcome (control, treated, inhibition, significance) (Carcinogen: 4-NITROQUINOLINE 1-OXIDE, 56-57-5, Dose [Inhibitor]: 0, 30 PPM IN DIET FOR 22 WK BEGINNING 1 WK POST FINAL CARCINOGEN DOSE (STUDY DURATION: 31 WK), Route [Inhibitor]: ORAL, Species: RAT, Strain/Sex: F344/MALE, Target Tissue: Type of Lesion: TONGUE: SQUAMOUS CELL CARCINOMA, Dose [Carcinogen]: 20 PPM IN DRINKING WATER FOR 8 WK): 11/24 (45.8%), 5/19 (26.3%), 42.6%, not significant
- tumour outcome (control, treated, inhibition, significance) (Carcinogen: 4-NITROQUINOLINE 1-OXIDE, 56-57-5, Dose [Inhibitor]: 0, 100 PPM IN DIET FOR 22 WK BEGINNING 1 WK POST FINAL CARCINOGEN DOSE (STUDY DURATION: 31 WK), Route [Inhibitor]: ORAL, Species: RAT, Strain/Sex: F344/MALE, Target Tissue: Type of Lesion: TONGUE: PAPILLOMA, Dose [Carcinogen]: 20 PPM IN DRINKING WATER FOR 8 WK): 3/24 (12.5%), 3/20 (15%), -20%, not significant
- tumour outcome (control, treated, inhibition, significance) (Carcinogen: 4-NITROQUINOLINE 1-OXIDE, 56-57-5, Dose [Inhibitor]: 0, 100 PPM IN DIET FOR 22 WK BEGINNING 1 WK POST FINAL CARCINOGEN DOSE (STUDY DURATION: 31 WK), Route [Inhibitor]: ORAL, Species: RAT, Strain/Sex: F344/MALE, Target Tissue: Type of Lesion: TONGUE: SQUAMOUS CELL CARCINOMA, Dose [Carcinogen]: 20 PPM IN DRINKING WATER FOR 8 WK): 11/24 (45.8%), 1/20 (5%), 89.1%, p< 0.005
- tumour outcome (control, treated, inhibition, significance) (Carcinogen: AZOXYMETHANE (25843-45-2), Dose [Inhibitor]: 0, 0.05% ADMINISTERED 1 WK AFTER END OF DEXTRAN SODIUM SULFATE TREATMENT FOR 14 WKS (STUDY DURATION: 17 WKS), Route [Inhibitor]: DIET, Species: MOUSE, Strain/Sex: CD-1/FEMALE (10,10)/(10,10), Target Tissue: Type of Lesion: COLON: ADENOCARCINOMA, Dose [Carcinogen]: 10 MG/KG ONCE, Promoter: DEXTRAN SODIUM SULFATE (9011-18-1)): 10/10 (100%), 4/10 (40%), 60%, p<0.01
- tumour outcome (control, treated, inhibition, significance) (Carcinogen: AZOXYMETHANE (25843-45-2), Dose [Inhibitor]: 0, 0.05% ADMINISTERED 1 WK AFTER END OF DEXTRAN SODIUM SULFATE TREATMENT FOR 14 WKS (STUDY DURATION: 17 WKS), Route [Inhibitor]: DIET, Species: MOUSE, Strain/Sex: CD-1/FEMALE (10,10)/(10,10), Target Tissue: Type of Lesion: COLON: ADENOMA, Dose [Carcinogen]: 10 MG/KG ONCE, Promoter: DEXTRAN SODIUM SULFATE (9011-18-1)): 10/10 (100%), 9/10 (90%), 10%, not significant
- tumour outcome (control, treated, inhibition, significance) (Carcinogen: N-METHYL-N-NITROSOUREA [684-93-5], Dose [Inhibitor]: 0.15% IN DIET FROM WKS 10 TO 52 (STUDY DURATION: 52 WKS), Route [Inhibitor]: ORAL (DIET), Species: MOUSE, Strain/Sex: PEROXISOME PROLIFERATOR- ACTIVATED RECEPTOR (PPAR GAMMA +/+)/MALE (11,9)/(13,11), Target Tissue: Type of Lesion: STOMACH: CARCINOMA, Dose [Carcinogen]: 240 PPM IN DRINKING WATER ON ALTERNATE WKS OVER A 10 WK PERIOD): (5/9) 56%, (1/11) 9%, 84%, p<0.01
- tumour outcome (control, treated, inhibition, significance) (Carcinogen: N-METHYL-N-NITROSOUREA [684-93-5], Dose [Inhibitor]: 0.15% IN DIET FROM WKS 10 TO 52 (STUDY DURATION: 52 WKS), Route [Inhibitor]: ORAL (DIET), Species: MOUSE, Strain/Sex: PEROXISOME PROLIFERATOR- ACTIVATED RECEPTOR (PPAR GAMMA +/-)/MALE (23,19)/(19,15), Target Tissue: Type of Lesion: STOMACH: CARCINOMA, Dose [Carcinogen]: 240 PPM IN DRINKING WATER ON ALTERNATE WKS OVER A 10 WK PERIOD): (17/19) 90%, (12/15) 80%, 11%, not significant

Structure (SMILES): CC(C)(C)NC(=O)[C@H]1CC[C@H]2[C@@H]3CC[C@H]4NC(=O)C=C[C@]4(C)[C@H]3CC[C@]12C
- tumour outcome (control, treated, inhibition, significance) (Carcinogen: N-BUTYL-N-(4-HYDROXYBUTYL)NITROSAMINE, 3817-11-6, Dose [Inhibitor]: 0, 2 MG/KG 2/WK FOR 11 WK BEGINNING POST CARCINOGEN TREATMENT (STUDY DURATION: 21WK), Route [Inhibitor]: ORAL, Species: RAT, Strain/Sex: WISTAR/MALE, Target Tissue: Type of Lesion: URINARY BLADDER: CARCINOMA, Dose [Carcinogen]: 0.05% IN DRINKING WATER FOR 10 WK, Promoter: NONE USED): 15/17 (88%), 12/17 (71%), 19%, not significant
- tumour outcome (control, treated, inhibition, significance) (Carcinogen: N-BUTYL-N-(4-HYDROXYBUTYL)NITROSAMINE, 3817-11-6, Dose [Inhibitor]: 0, 2 MG/KG 2/WK FOR 13 WK BEGINNING POST CARCINOGEN TREATMENT (STUDY DURATION: 20WK), Route [Inhibitor]: ORAL, Species: RAT, Strain/Sex: WISTAR/MALE, Target Tissue: Type of Lesion: URINARY BLADDER: CARCINOMA, Dose [Carcinogen]: 0.05% IN DRINKING WATER FOR 7 WK, Promoter: NONE USED): 25/39 (64%), 9/20 (45%), 30%, not significant
- tumour outcome (control, treated, inhibition, significance) (Carcinogen: N-BUTYL-N-(4-HYDROXYBUTYL)NITROSAMINE, 3817-11-6, Dose [Inhibitor]: 0, 4 MG/KG 2/WK FOR 13 WK BEGINNING POST CARCINOGEN TREATMENT (STUDY DURATION: 20 WK), Route [Inhibitor]: ORAL, Species: RAT, Strain/Sex: WISTAR/MALE, Target Tissue: Type of Lesion: URINARY BLADDER: CARCINOMA, Dose [Carcinogen]: 0.05% IN DRINKING WATER FOR 7 WK, Promoter: NONE USED): 25/39 (64%), 9/20 (45%), 30%, not significant
- tumour outcome (control, treated, inhibition, significance) (Carcinogen: N-BUTYL-N-(4-HYDROXYBUTYL)NITROSAMINE, 3817-11-6, Dose [Inhibitor]: 0, 8 MG/KG 2/WK FOR 13 WK BEGINNING POST CARCINOGEN TREATMENT (STUDY DURATION: 20 WK), Route [Inhibitor]: ORAL, Species: RAT, Strain/Sex: WISTAR/MALE, Target Tissue: Type of Lesion: URINARY BLADDER : CARCINOMA, Dose [Carcinogen]: 0.05% IN DRINKING WATER FOR 7 WK, Promoter: NONE USED): 25/39 (64%), 8/20 (40%), 38%, not significant
- tumour outcome (control, treated, inhibition, significance) (Carcinogen: N-METHYL-N-NITROSOUREA, 684-93-5, Dose [Inhibitor]: 0.09 MG/200 G BW/D FOR 2 MO BEGINNING 9.5 MO POST-CARCINOGEN DOSE (STUDY DURATION: 11.5 MO), Route [Inhibitor]: GAVAGE, Species: RAT, Strain/Sex: WISTAR/MALE, Target Tissue: Type of Lesion: PROSTATE: ADENOCARCINOMA, Dose [Carcinogen]: 35 MG/KG BW ONCE AT INITIATION OF STUDY, Promoter: TESTOSTERONE PROPIONATE, 57-85-2): 9/14 (64%), 1/10 (10%), 84%, not determined

Structure (SMILES): C#C[C@]1(O)CC[C@H]2[C@@H]3CCC4=CC(=O)CC[C@@H]4[C@H]3CC[C@@]21CC (tested in a mixture with another compound)
- tumour outcome (control, treated, inhibition, significance) (Carcinogen: 3-METHYLCHOLANTHRENE, 56-49-5, Dose [Inhibitor]: 0, 1/200 OF A PILL CONTAINING 0.25 UG ETHINYLESTRADIOL AND 2.5 UG NORGESTREL 1/D FOR 60 D (STUDY DURATION: 60 D), Route [Inhibitor]: ORAL, Species: MOUSE, Strain/Sex: SWISS/FEMALE, Target Tissue: Type of Lesion: UTERINE CERVIX: TUMOR, Dose [Carcinogen]: 300 UG IN BEESWAX IMPREGNATED COTTON THREAD INSERTED INTO CANAL OF UTERINE CERVIX FOR DURATION OF STUDY, Promoter: NONE USED): 2/23 (9%), 1/16 (6%), 33%, not significant
- tumour outcome (control, treated, inhibition, significance) (Carcinogen: 3-METHYLCHOLANTHRENE, 56-49-5, Dose [Inhibitor]: 0, 1/200 OF A PILL CONTAINING 0.25 UG ETHINYLESTRADIOL AND 2.5 UG NORGESTREL 1/D FOR 90 D (STUDY DURATION: 90 D), Route [Inhibitor]: ORAL, Species: MOUSE, Strain/Sex: SWISS/FEMALE, Target Tissue: Type of Lesion: UTERINE CERVIX: TUMOR, Dose [Carcinogen]: 300 UG IN BEESWAX IMPREGNATED COTTON THREAD INSERTED INTO CANAL OF UTERINE CERVIX FOR DURATION OF STUDY, Promoter: NONE USED): 6/23 (26%), 1/29 (3%), 88%, p<0.05
- tumour outcome (control, treated, inhibition, significance) (Carcinogen: 3-METHYLCHOLANTHRENE, 56-49-5, Dose [Inhibitor]: 0, 1/2000 OF A PILL CONTAINING 0.025 UG ETHINYLESTRADIOL AND 0.25 UG OF NORGESTREL 1/D FOR 60 D (STUDY DURATION: 60 D), Route [Inhibitor]: ORAL, Species: MOUSE, Strain/Sex: SWISS/FEMALE, Target Tissue: Type of Lesion: UTERINE CERVIX: TUMOR, Dose [Carcinogen]: 300 UG IN BEESWAX IMPREGNATED COTTON THREAD INSERTED INTO CANAL OF UTERINE CERVIX FOR DURATION OF STUDY, Promoter: NONE USED): 2/23 (9%), 0/22 (0%), 100%, not significant
- tumour outcome (control, treated, inhibition, significance) (Carcinogen: 3-METHYLCHOLANTHRENE, 56-49-5, Dose [Inhibitor]: 0, 1/2000 OF A PILL CONTAINING 0.025 UG ETHINYLESTRADIOL AND 0.25 UG OF NORGESTREL 1/D FOR 90 D (STUDY DURATION: 90 D), Route [Inhibitor]: ORAL, Species: MOUSE, Strain/Sex: SWISS/FEMALE, Target Tissue: Type of Lesion: UTERINE CERVIX: TUMOR, Dose [Carcinogen]: 300 UG IN BEESWAX IMPREGNATED COTTON THREAD INSERTED INTO THE CANAL OF THE UTERINE CERVIX FOR THE DURATION OF STUDY, Promoter: NONE USED): 6/23 (26%), 1/30 (3%), 88%, p<0.05
